Blank lines part the entries; values can stand above or below the molecule they belong to.
Assays:
mouse TRPV2 (mTRPV2) = target: T1, mouse TRPV2 (mTRPV2) (Mus musculus, UniProt Q9WTR1); test: 2-APB-induced increase in [Ca2+]i in HEK293 cells expressing mTRPV2 (fura-2, microplate reader / imaging); assay type: cell-based; settings: for IC50 / inhibition of the 2-APB-induced increase in [Ca2+]i: HEK293 cells expressing mTRPV2, 2-APB 0.3 mM, CaCl2 5 mM, pH 6.5; for IC50: read-out: IC50 for the 2-APB-induced increase in [Ca2+]i (Ca2+ response); for inhibition of the 2-APB-induced increase in [Ca2+]i: concentrations up to 100 μM; for Ca2+ responses elicited by TRPV2 agonists (initial assessment): cell-based assay, before optimisation of conditions
T1 construct: expressed in transfected cells
T1 sequence (Q9WTR1 1-756): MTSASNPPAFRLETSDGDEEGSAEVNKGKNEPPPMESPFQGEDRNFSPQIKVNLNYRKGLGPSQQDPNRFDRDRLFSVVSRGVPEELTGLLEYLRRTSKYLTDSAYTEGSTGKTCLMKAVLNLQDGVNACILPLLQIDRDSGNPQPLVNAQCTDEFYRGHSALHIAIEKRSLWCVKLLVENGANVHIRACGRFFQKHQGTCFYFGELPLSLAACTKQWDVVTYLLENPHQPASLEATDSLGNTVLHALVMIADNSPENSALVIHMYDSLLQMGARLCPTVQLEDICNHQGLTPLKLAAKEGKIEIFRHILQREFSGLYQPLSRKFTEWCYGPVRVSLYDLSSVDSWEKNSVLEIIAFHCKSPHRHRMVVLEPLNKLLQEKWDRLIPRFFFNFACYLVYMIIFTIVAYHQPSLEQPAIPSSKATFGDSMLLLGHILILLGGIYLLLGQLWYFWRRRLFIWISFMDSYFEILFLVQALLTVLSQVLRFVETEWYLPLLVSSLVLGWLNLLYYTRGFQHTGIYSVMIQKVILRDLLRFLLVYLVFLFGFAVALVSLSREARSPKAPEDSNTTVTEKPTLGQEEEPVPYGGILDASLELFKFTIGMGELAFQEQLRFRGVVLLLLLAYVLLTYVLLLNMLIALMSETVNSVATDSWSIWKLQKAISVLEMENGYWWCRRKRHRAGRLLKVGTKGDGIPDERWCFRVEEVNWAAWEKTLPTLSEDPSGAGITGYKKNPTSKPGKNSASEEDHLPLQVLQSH
Procedure: HEK293 cells expressing mouse TRPV2 (mTRPV2) and non-transfected HEK293 cells were loaded with fura-2-AM and placed in low CaCl2 medium (0.5 mM).
For the drug screening, we designed a method involving measurement of the Ca^2+ response using a 96-well high-throughput plate-reader. Cells were placed in low CaCl2 (0.5 mM) medium, which was replaced with high CaCl2 medium (5 mM) with or without the TRPV agonist 2-APB and adjusted to various pH values.
(§1) [Ca^2+]i was measured by a ratiometric fluorescence method as previously described. Briefly, HEK293 cells were loaded with 4 μM fura-2-AM for 30 min at 37° C and maintained in balanced salt solution (BSS) (146 mM NaCl, 4 mM KCl, 2 mM MgCl2, 0.5 mM CaCl2, 10 mM glucose, 0.1% bovine serum albumin, and 10 mM HEPES/Tris, pH 7.4). Fura-2-AM fluorescence was measured using an Aquacosmos fluorescence image processor (Hamamatsu Photonics, Hamamatsu, Japan). The time-course data are presented as the ratio of fluorescence at an excitation wavelength of 340 nm to that at 380 nm. The increase in the fluorescence ratio induced by the TRPV2 agonist 2-APB or high extracellular Ca^2+ (ΔR) was normalized to the initial ratio (R0) before stimulation. The fluorescence relative ratio (ΔR/R0) was plotted as the summary data in the fluorescence imaging analysis.
For screening, cells were plated in 96-well plates and the fura-2-AM fluorescence ratio at excitation wavelengths of 340 nm and 380 nm was monitored using a GENios Pro microplate reader (Tecan, Research Triangle Park, NC, USA) or POLARstar Omega (BMG Labtech, Germany). Cells were stimulated in BSS containing 5 mM CaCl2. […] All Ca^2+ measurements were carried out at room temperature. […] For simplicity, the results are presented as normalized values (% maximum) from the microplate reader experiment.

hTRPC1 = target: T2, hTRPC1 (Homo sapiens, UniProt P48995); test: Store-operated Ca2+ entry after thapsigargin in hTRPC1-transfected HEK293 cells; assay type: cell-based; settings: hTRPC1-transfected HEK293 cells; thapsigargin; compound 100 μM
T2 construct: expressed in transfected cells; host or cells: HEK293 cells
Procedure: Figure 4 Effects of inhibitor compounds on the Ca^2+ response of cells expressing hTRPV1, hTRPV2, or hTRPC1 (A) Effect of compounds on CaCl2 (5 mM)-induced peak fluorescence ratio in non-transfected (nt) or hTRPV2-transfected CHO cells. The extracellular Ca^2+-dependent increase in the ratio of fura-2 fluorescence intensity at 340/380 nm (ΔR, 2 min after addition of chemicals) was plotted as ΔR/R0 after normalising to the initial fluorescence ratio (R0). […] Solid bar, no inhibitor. (B) Effect of compounds on 2-APB (1 mM)/high extracellular CaCl2-induced peak fluorescence ratio in nt or hTRPV1-transfected HEK293 cells. […] (C) Effect of compounds on store-operated Ca^2+ entry in nt or hTRPC1-transfected HEK293 cells. Cells were treated with the endoplasmic reticulum Ca^2+ pump inhibitor thapsigargin and exposed to CaCl2 and the indicated compounds. ΔR was measured 2 min after the addition of CaCl2. […] Data are shown as mean ± SD (n = 5).
as §1, with “Briefly, HEK293 cells were loaded with 4 μM fura-2-AM for 30 min at 37° C and maintained in balanced salt solution (BSS) (146 mM NaCl, 4 mM KCl, 2 mM MgCl2, 0.5 mM CaCl2, 10 mM glucose, 0.1% bovine serum albumin, and 10 mM HEPES/Tris, pH 7.4).” left out

TRPV2 [1] = test system: TRPV2; design: method as in PMID 17673572; settings: cited from earlier work
mTRPV2 channel = target: T3, mTRPV2 channel (Mus musculus, UniProt Q9WTR1); test: Whole-cell patch clamp of 2-APB-evoked mTRPV2 current in HEK293 cells; assay type: cell-based; settings: tranilast 100 μM; 200 μM 2-APB; data not shown
T3 construct: expressed in transfected cells
T3 sequence (Q9WTR1 1-756): T1 sequence (Q9WTR1 1-756)
Procedure: The fluorescence ratio was measured by a microplate reader and normalized by the maximal value. Data are shown as mean ± SD (n = 5). […] The current values at −100 mV measured by an every-2-second ramp protocol were plotted. […] The current waveforms of the control cells and the cells 11 minutes after application of 15 μM lumin were superimposed. The L-type Ca^2+ channel currents were elicited by depolarizing pulses of 0 mV for 200 milliseconds from −80 mV.
TRPV2 currents were recorded under voltage-clamp conditions by the whole-cell patch-clamp technique. Patch pipettes (2–5 MΩ) were filled with an intracellular solution containing 110 mM K-aspartate, 30 mM KCl, 10 mM NaCl, 1 mM MgCl2, 10 mM BAPTA, 10 mM HEPES, and 3 mM MgATP (adjusted to pH 7.2 with KOH). The extracellular solution contained 145 mM NaCl, 5 mM KCl, 1.5 mM MgCl2, 1 mM EGTA, 10 mM HEPES, and 10 mM glucose (pH was adjusted to 6.5 with NaOH). Because TRPV2 was reported to desensitize in the presence of extracellular Ca^2+ [41], we used nominally Ca^2+-free medium containing 1 mM EGTA to prevent desensitization. In the experiments confirming the pH dependence of the response, the pH was adjusted to 7.4. In the whole-cell recordings, the membrane potential of the cell was held at −60 mV, while voltage ramps of 400 ms from −100 mV to +60 mV were applied every 2 seconds. Currents through the electrode were recorded at 5 kHz and filtered at 2 kHz by an Axopatch 200B amplifier (Molecular Devices, LLC, Sunnyvale, CA, USA). The junctional potential was −11.7 mV.

J2N-k myocytes = test: Stretch-induced CK release from J2N-k myocytes; assay type: cell-based, hamster; settings: 500 μM, 30 min pretreatment, cyclic stretch 20% elongation 1 h
Procedure: (§2) Creatine phosphokinase (CK) activity in the medium was determined using an in vitro colorimetric assay kit (CK Test Kit; Wako Pure Chemical Industries, Ltd., Osaka, Japan) according to the manufacturer's protocol The cTN-I level in the serum was measured, while quantitative immunoblotting and immunocytochemistry were performed as previously described. Protein concentration was measured using the bicinchoninic acid assay (Pierce Chemical Co., Rockford, IL, USA) with bovine serum albumin as the standard. All histochemical and physiological analyses were performed by investigators blinded to the drug treatments. Unless otherwise stated, results are presented as the mean ± SD of at least 5 determinations. The unpaired Student's t-test and one-way ANOVA followed by Dunnett's test were used to analyse the data. Values of P < 0.05 (indicated as asterisks in the figures) were considered statistically significant. All cellular measurements were repeated at least 5 times. Representative data are shown.

TRPV2 [2] = test system: TRPV2; design: method as in PMID 21147993; settings: TRPV2-transfected HEK293 cells; cited from earlier work
[3] = test system: cardiomyopathic J2N-k hamsters; test: Cardiomyopathy in J2N-k hamsters in vivo (echocardiography, serum cTN-I, Masson's trichrome fibrosis); design: species or system hamster; settings: 300 mg/kg/day mixed with feed, 3 weeks
Procedure: Male δ-SG-deficient cardiomyopathic J2N-k and age-matched wild-type J2N-n hamsters (9 weeks old) were purchased from Japan SLC, Inc. (Shizuoka, Japan). Tranilast was ingested mixed with feed (300 mg/kg/day) as described previously, whereas other drugs (Figure 1) were administered orally in the drinking water at doses of 30 mg/kg (except lumin) per day for 3 weeks. In case of lumin, we first performed dose-dependent experiment at dose of 1,10 and100 mg/kg per day for 3 weeks, in order to determine the effective dose. […] After drug treatment, serum cardiac troponin (cTN)-I was measured and echocardiography analysis was performed. Histochemistry of cardiac muscles was performed as previously described. All animal experiments were performed according to the Guidelines for Animal Experimentation of the National Cerebral and Cardiovascular Center Research Institute.
Ventricles were fixed in phosphate-buffered saline containing 10% formalin and embedded in paraffin. Serial sections were cut at a thickness of 5 μm and stained with Masson's trichrome stain for morphological analysis. Sections were viewed under a BX41 light microscope (Olympus, Tokyo, Japan). Images were acquired with an FX380 digital camera (Olympus) and analysed using an FLVFS-LS imaging system (Flovel, Tokyo, Japan).
Fibrosis was assessed by measuring Masson's trichrome-positive areas. Briefly, colour images were converted to binary form by setting the threshold value so as to detect only blue-stained fibrotic areas, which were summed and reported as a percentage of the total.
Cardiac function was evaluated by echocardiography using a Sonos5500 ultrasound system (Hewlett-Packard, Palo Alto, CA, USA) with a 12-MHz transducer and M-mode imaging. The animals were sedated with tribromoethanol (350 mg/kg by intraperitoneal injection) during the process.
as §2

T2 sequence (P48995 whole entry): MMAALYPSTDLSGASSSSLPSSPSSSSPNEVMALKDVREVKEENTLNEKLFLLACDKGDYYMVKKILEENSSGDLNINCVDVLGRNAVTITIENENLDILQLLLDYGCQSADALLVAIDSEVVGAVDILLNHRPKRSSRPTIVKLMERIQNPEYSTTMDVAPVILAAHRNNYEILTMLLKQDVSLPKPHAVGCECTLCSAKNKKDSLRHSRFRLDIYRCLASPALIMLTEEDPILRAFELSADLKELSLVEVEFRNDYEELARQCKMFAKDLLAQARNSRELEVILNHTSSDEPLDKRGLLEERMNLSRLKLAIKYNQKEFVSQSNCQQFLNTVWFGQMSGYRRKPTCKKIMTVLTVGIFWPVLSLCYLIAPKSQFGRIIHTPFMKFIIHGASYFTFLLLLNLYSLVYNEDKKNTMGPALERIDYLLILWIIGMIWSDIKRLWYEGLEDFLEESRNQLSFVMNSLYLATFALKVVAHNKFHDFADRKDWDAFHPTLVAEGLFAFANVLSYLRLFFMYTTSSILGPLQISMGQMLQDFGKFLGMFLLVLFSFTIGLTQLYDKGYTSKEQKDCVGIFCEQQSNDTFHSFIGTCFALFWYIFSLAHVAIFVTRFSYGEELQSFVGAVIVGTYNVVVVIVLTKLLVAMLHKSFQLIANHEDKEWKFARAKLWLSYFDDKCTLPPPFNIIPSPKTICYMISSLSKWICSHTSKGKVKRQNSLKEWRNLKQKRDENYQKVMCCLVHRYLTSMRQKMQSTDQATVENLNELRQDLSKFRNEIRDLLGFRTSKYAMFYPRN

IC50 (mouse TRPV2 (mTRPV2)): ≥ 10 µM
effect on store-operated increase in [Ca2+]i (hTRPC1): strongly inhibited
SMILES: COc1ccc(CCCOC(Cn2ccnc2)c2ccc(OC)cc2)cc1 (stereo not drawn) [SKF96365, 1-[β-[3-(4-methoxyphenyl)propoxy]-4-methoxyphenethyl]-1H-imidazole]

SMILES: Nc1ccncc1 [4-amino-pyridine]
effective doses for inhibition of TRPV2 activation (TRPV2 [1]): 100 to 1000 µM

inhibition of the 2-APB-induced increase in [Ca2+]i (mouse TRPV2 (mTRPV2)): did not inhibit
SMILES: CC(C)c1ccc(C(=O)NC(=N)N)cc1S(C)(=O)=O [cariporide]

SMILES: CC[N+](CC)(CC)CC [tetraethylammonium]
effective doses for inhibition of TRPV2 activation (TRPV2 [1]): 100 to 1000 µM

effect on TRPV2 channel activity (mTRPV2 channel): did not inhibit
IC50 (mouse TRPV2 (mTRPV2)): ≥ 10 µM
SMILES: COc1ccc(/C=C/C(=O)Nc2ccccc2C(=O)O)cc1OC [tranilast, N-[3,4-dimethoxycinnamonyl]-anthranilic acid]
reduction of stretch-induced CK release (J2N-k myocytes): up to 70%
effect on pressure-induced inward current (TRPV2 [2]): blocked
effect on fibrosis (Masson's trichrome) [3]: prevented fibrosis
effect on fractional shortening (FS) [3]: prevented
effect on left ventricular end-diastolic dimension (LVDd) [3]: small effect
effect on left ventricular end-systolic dimension (LVDs) [3]: prevented the increase
effect on serum level of cTN-I [3]: reduced

SMILES: C=C(C)[C@@H]1CCC(C)=C[C@H]1c1c(O)cc(CCCCC)cc1O [cannabidiol]
Ca2+ responses elicited by TRPV2 agonists (initial assessment) (mouse TRPV2 (mTRPV2)): too small

SMILES: FC(F)(F)c1ccccc1-n1ccnc1 [1-(2-(trifluoromethyl)phenyl)imidazole]
effective doses for inhibition of TRPV2 activation (TRPV2 [1]): 100 to 1000 µM

Ca2+ responses elicited by TRPV2 agonists (initial assessment) (mouse TRPV2 (mTRPV2)): too small
SMILES: CCCN(CCC)S(=O)(=O)c1ccc(C(=O)O)cc1 [probenecid]

inhibition of the 2-APB-induced increase in [Ca2+]i (mouse TRPV2 (mTRPV2)): did not inhibit
SMILES: COc1ccc([C@@H]2Sc3ccccc3N(CCN(C)C)C(=O)[C@@H]2OC(C)=O)cc1 [diltiazem]

inhibition of the 2-APB-induced increase in [Ca2+]i (mouse TRPV2 (mTRPV2)): did not inhibit
SMILES: [H]/N=C(/N)N[C@H]1[C@H](O)[C@@H](O)[C@H](O[C@@H]2O[C@@H](C)[C@](O)(C=O)[C@H]2O[C@@H]2O[C@@H](CO)[C@H](O)[C@@H](O)[C@@H]2NC)[C@@H](N/C(N)=N\[H])[C@@H]1O [streptomycin]

— paper PMC5865651, “Novel inhibitor candidates of TRPV2 prevent damage of dystrophic myocytes and ameliorate against dilated cardiomyopathy in a hamster model” (Oncotarget, 2018)
